28 compounds from ChEMBL document CHEMBL3784979, “Design, synthesis and biological evaluation of novel benzimidazole-2-substituted phenyl or pyridine propyl ketene derivatives as antitumour agents” (Eur J Med Chem, 2016) can be followed below.

pIC50: −log10 of the molar value. Activity calls are given as the source filed them. The rule behind the calls is not given here. Bounds are passed on as bounds.

A short description of data set [1]: Antiproliferative activity against human HCT116 cells after 48 hrs by MTT assay. The note with it: HCT-116, 48 h. In kind it is functional, cell-based. For orientation: Formazan colour is commonly taken as a measure of viable cells.
In another data set the test system is HepG2. Briefly: Antiproliferative activity against human HepG2 cells after 48 hrs by MTT assay. Format: functional, cell-based. The note with it: HepG2, 48 h.
In a further data set the test system is MCF7. Put plainly: Antiproliferative activity against human MCF7 cells after 48 hrs by MTT assay. Format: functional, cell-based. The note with it: MCF7, 48 h.
Data set [2] can be described thus: Antiproliferative activity against p53 deficient human HCT116 cells after 48 hrs by MTT assay. In kind it is functional, cell-based. The note with it: HCT-116, 48 h.
The nature of data set [3]: Cell cycle arrest in human HCT116 cells assessed as accumulation at S phase at 0.58 uM after 72 hrs by propidium iodide staining based flow cytometry (reference value: 40.55 +/- 1.36%). In kind it is functional. To be noted: HCT-116. In general terms: Flow cytometry measures light scatter and fluorescence of single cells or particles in a stream.
In data set [4] the target is T1, Tumour suppressor p53/oncoprotein Mdm2 (Homo sapiens) (UniProt P04637+Q00987). Briefly: Inhibition of MDM2/P53 protein interaction in human HCT116 cells at 0.5 to 5 uM after 24 hrs by immunoprecipitation analysis. The note with it: HCT-116. Format: cell-based.
Data set [5] can be described thus: Cell cycle arrest in human HCT116 cells assessed as accumulation at G2 phase at 0.58 uM after 72 hrs by propidium iodide staining based flow cytometry (reference value: 27.73 +/- 3.56%). Format: functional. The note with it: HCT-116.
The subject of data set [6] is Mus musculus. Put plainly: Toxicity in BALB/c mouse assessed as change in body weight at 100 to 200 mg/kg, ip twice weekly for 4 weeks measured 24 hrs post last dose. Format: organism-based. To be noted: in vivo.
Data set [7] deals with HCT-116. Briefly: Antitumor activity against human HCT116 cells xenografted in ip dosed BALB/c mouse assessed as tumor growth inhibition administered twice weekly for 4 weeks measured 24 hrs post last dose. Format: functional, organism-based. A general note: In xenograft studies the graft and the host belong to different species.
Data set [8] is described as follows: Toxicity in ip dosed BALB/c mouse by bliss test. In kind it is organism-based. To be noted: in vivo.
The nature of data set [9]: Cell cycle arrest in human HCT116 cells assessed as accumulation at G1 phase at 0.58 uM after 72 hrs by propidium iodide staining based flow cytometry (reference value: 31.72 +/- 2.21%). Format: functional. To be noted: HCT-116.
A short description of data set [10]: Cell cycle arrest in human HCT116 cells assessed as accumulation at G2 phase at 0.04 uM after 72 hrs by propidium iodide staining based flow cytometry (reference value: 27.73 +/- 3.56%). In kind it is functional. The note with it: HCT-116.
The test system of data set [11] is HCT-116. Put plainly: Potency index, ratio of 5-fluorouracil IC50 to compound IC50 for human HCT116 cells. Format: functional.
The target in data set [12] is T1, Tumour suppressor p53/oncoprotein Mdm2 (Homo sapiens). Briefly: Inhibition of MDM2/P53 protein interaction in human HCT116 cells at 0.1 to 1 uM after 24 hrs by immunoprecipitation analysis. In kind it is cell-based. To be noted: HCT-116.
Data set [13] in a line: Cell cycle arrest in human HCT116 cells assessed as accumulation at G1 phase at 0.04 uM after 72 hrs by propidium iodide staining based flow cytometry (reference value: 31.72 +/- 2.21%). In kind it is functional. The note with it: HCT-116.
Data set [14] in a line: Antitumor activity against human HCT116 cells xenografted in BALB/c mouse assessed as tumor growth inhibition at 200 mg/kg, ip twice weekly for 4 weeks measured 24 hrs post last dose relative to control. Format: functional. To be noted: HCT-116, ip, read-out: TGI.
Data set [15] in a line: Cell cycle arrest in human HCT116 cells assessed as accumulation at S phase at 0.04 uM after 72 hrs by propidium iodide staining based flow cytometry (reference value: 40.55 +/- 1.36%). In kind it is functional. To be noted: HCT-116.
The nature of data set [16]: Cell cycle arrest in human HCT116 cells assessed as accumulation at G2 phase at 0.06 uM after 72 hrs by propidium iodide staining based flow cytometry (reference value: 27.73 +/- 3.56%). The note with it: HCT-116. In kind it is functional.
Data set [17] in a line: Cell cycle arrest in human HCT116 cells assessed as accumulation at G1 phase at 0.06 uM after 72 hrs by propidium iodide staining based flow cytometry (reference value: 31.72 +/- 2.21%). In kind it is functional. The note with it: HCT-116.
Data set [18] can be described thus: Cell cycle arrest in human HCT116 cells assessed as accumulation at S phase at 0.06 uM after 72 hrs by propidium iodide staining based flow cytometry (reference value: 40.55 +/- 1.36%). The note with it: HCT-116. Format: functional.
Data set [19] can be described thus: Antitumor activity against human HCT116 cells xenografted in BALB/c mouse assessed as tumor growth inhibition at 12.5 mg/kg, ip twice weekly for 4 weeks measured 24 hrs post last dose relative to control. In kind it is functional. To be noted: HCT-116, ip, read-out: TGI.
In data set [20] the test system is Mus musculus. Briefly: Toxicity in BALB/c mouse assessed as reduction in body weight at 12.5 mg/kg, ip twice weekly for 4 weeks measured 24 hrs post last dose. Format: organism-based. To be noted: in vivo.
The nature of data set [21]: Cell cycle arrest in human HCT116 cells assessed as accumulation at S phase after 72 hrs by propidium iodide staining based flow cytometry (reference value: 40.55 +/- 1.36%). In kind it is functional. The note with it: HCT-116.
A short description of data set [22]: Cell cycle arrest in human HCT116 cells assessed as accumulation at G1 phase after 72 hrs by propidium iodide staining based flow cytometry (reference value: 31.72 +/- 2.21%). To be noted: HCT-116. In kind it is functional.
Data set [23] in a line: Cell cycle arrest in human HCT116 cells assessed as accumulation at G2 phase after 72 hrs by propidium iodide staining based flow cytometry (reference value: 27.73 +/- 3.56%). In kind it is functional. To be noted: HCT-116.

T1 sequence (P04637 whole entry, looked up): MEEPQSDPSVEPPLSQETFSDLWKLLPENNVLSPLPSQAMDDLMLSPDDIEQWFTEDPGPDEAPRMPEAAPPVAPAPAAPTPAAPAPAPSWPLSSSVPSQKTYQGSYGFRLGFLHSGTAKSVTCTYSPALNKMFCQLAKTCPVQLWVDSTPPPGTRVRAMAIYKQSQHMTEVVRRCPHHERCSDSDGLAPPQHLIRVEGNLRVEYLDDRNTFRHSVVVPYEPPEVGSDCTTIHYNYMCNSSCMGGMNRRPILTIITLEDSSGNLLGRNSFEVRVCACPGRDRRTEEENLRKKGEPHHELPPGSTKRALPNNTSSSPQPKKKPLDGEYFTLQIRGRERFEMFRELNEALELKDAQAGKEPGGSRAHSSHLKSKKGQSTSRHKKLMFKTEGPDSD
T1 sequence (Q00987 whole entry, looked up): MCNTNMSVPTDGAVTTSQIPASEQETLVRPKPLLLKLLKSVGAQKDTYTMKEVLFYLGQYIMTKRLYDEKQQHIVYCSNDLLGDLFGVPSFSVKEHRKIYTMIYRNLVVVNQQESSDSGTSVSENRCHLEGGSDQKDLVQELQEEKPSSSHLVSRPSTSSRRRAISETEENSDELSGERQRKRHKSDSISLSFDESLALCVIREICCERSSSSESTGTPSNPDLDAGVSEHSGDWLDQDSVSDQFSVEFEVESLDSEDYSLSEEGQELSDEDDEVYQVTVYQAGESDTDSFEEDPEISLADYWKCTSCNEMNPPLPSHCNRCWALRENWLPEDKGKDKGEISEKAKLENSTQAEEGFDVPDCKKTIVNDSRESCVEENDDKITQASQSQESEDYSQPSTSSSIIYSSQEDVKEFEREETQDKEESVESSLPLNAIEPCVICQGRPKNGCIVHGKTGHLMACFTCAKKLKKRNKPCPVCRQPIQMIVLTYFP

In the case of `CC(=O)O[C@H]1C(=O)[C@@]2(C)[C@H]([C@H](OC(=O)c3ccccc3)[C@]3(O)C[C@H](OC(=O)[C@H](O)[C@@H](NC(=O)c4ccccc4)c4ccccc4)C(C)=C1C3(C)C)[C@]1(OC(C)=O)CO[C@@H]1C[C@@H]2O` [PACLITAXEL], the results for the pIC50 (in data set [1]; in the data set on HepG2) were 7.17 and 7.66, respectively.
Consider `OC(/C=C/c1ccccn1)c1nc2ccccc2[nH]1` (stereo not drawn), for which the pIC50 (usually the IC50 on a negative log10 scale, so that one unit is a factor of ten) was < 4.00 with MCF7, < 4.00 in data set [1] and < 4.30 with HepG2.
Turning to `Cc1ccccc1/C=C/C(=O)c1nc2ccccc2[nH]1`, the pIC50 with MCF7 was 4.20; in data set [1], 6.07; in data set [2], 5.36; with HepG2, 5.17.
As for `COc1cccc(/C=C/C(=O)c2nc3ccccc3[nH]2)c1`, the pIC50 in the data set on MCF7 is 4.66; in data set [1], 6.24; in [2] it was 5.32; with HepG2, 5.25. In addition, the Activity is 19% in data set [3], 20.5% in [5], “Non-toxic” in the data set with Mus musculus [6] and 60.5% in data set [9]. The inhibition result in data set [4] was “Active”. For the same compound, in the data set on HCT-116 [7], the TGI result is “Dose-dependent effect”. In addition, the LD50 – broadly, the dose at which mortality reaches 50% – in [8] stood at 1220 mg/kg.
With `O=C(/C=C/c1ccncc1)c1nc2ccccc2[nH]1`, the pIC50 in the data set with MCF7 was 4.68; in [1], 6.15; in data set [2] it was 5.25; with HepG2 it was 5.16.
As for `COc1ccc(/C=C/C(=O)c2nc3ccccc3[nH]2)cc1`, the pIC50 in the data set on MCF7 is < 4.00; in [1], 4.88; in the data set with HepG2 it was 5.13.
On to `O=C(/C=C/c1ccccn1)c1nc2ccccc2s1`, for which the pIC50 (with MCF7; in data set [1]; in the data set on HepG2) was < 4.00 throughout.
In the case of `O=C(/C=C/c1ccc(Cl)cc1)c1nc2ccccc2[nH]1`, the negative-log IC50 (pIC50) in the data set with MCF7 is 4.61; in data set [1], 5.17; in the data set on HepG2 it was 4.90.
With `O=C(/C=C/c1cccc(Cl)c1)c1nc2ccccc2[nH]1`, the Activity in data set [10] is 17.8%; in [13] it was 65%; in the data set on Mus musculus [6], “Non-toxic”; in data set [15], 17.2%. Besides, the “Ratio IC50” value with HCT-116 [11] is recorded as 950. The pIC50 with MCF7 was 5.01; in data set [1] it was 7.52; in data set [2] it was 5.71; in the data set with HepG2, 6.12. In addition, the inhibition entry in data set [12] was “Active”. Further, the TGI result in the data set with HCT-116 [7] was “Dose-dependent effect”. In data set [14], the inhibition in vivo at 200 mg/kg is 74.6%. In addition, the LD50 in data set [8] came to 692 mg/kg.
On to `O=C(/C=C/c1ccccn1)c1nc2ccccc2[nH]1`, for which the “Ratio IC50” value in the data set with HCT-116 [11] was found to be 950. In addition, the Activity in data set [16] is 16.6%; in data set [17], 64.5%; in data set [18], 18.9%; with Mus musculus [6], “Non-toxic”. For the same compound, the negative logarithm of the IC50 (pIC50) is 5.44 with MCF7, 7.22 in data set [1], 5.84 in data set [2] and 6.47 in the data set with HepG2. Also, the inhibition result in data set [12] is “Active”. Further, the TGI entry with HCT-116 [7] is “Dose-dependent effect”. The compound further displayed an LD50 in data set [8] of 634 mg/kg.
Regarding `COc1cccc(/C=C/C(O)c2nc3ccccc3[nH]2)c1` (stereo not drawn), the pIC50 (in the data set with MCF7; in data set [1]; with HepG2) was < 4.00 each time.
In the case of `COc1cccc(/C=C/C(=O)c2nc3ccccc3s2)c1`, the pIC50 (with MCF7; in data set [1]; in the data set on HepG2) was < 4.00 in each case.
Take `O=C(/C=C/c1ccccc1)c1nc2ccccc2[nH]1`: the pIC50 in the data set on MCF7 was 4.40; in data set [1] it was 6.70; in data set [2], 5.68; with HepG2 it was 5.20.
Consider `O=c1[nH]cc(F)c(=O)[nH]1` [FLUOROURACIL], for which the pIC50 in the data set on MCF7 is 3.65; in data set [1] it was 4.24; in the data set with HepG2, 3.76.
`O=C(/C=C/c1cccc(Br)c1)c1nc2ccccc2[nH]1`: the pIC50 in the data set on MCF7 is 4.71; in data set [1] it was 6.10; in data set [2], 5.53; with HepG2, 5.80.
For the compound `O=C(CCc1cccc(Cl)c1)c1nc2ccccc2[nH]1`, the pIC50 (with MCF7; in data set [1]; in the data set with HepG2) was < 4.00 in each case.
Consider `O=C(CCc1ccccn1)c1nc2ccccc2[nH]1`, for which the negative-log IC50 (pIC50) (with MCF7; in data set [1]; in the data set on HepG2) was < 4.00 throughout.
On to `O=C(/C=C/c1ccc(Br)cc1)c1nc2ccccc2[nH]1`, for which the pIC50 in the data set on MCF7 was 4.28; in data set [1], 4.71; in the data set with HepG2, 4.96.
For `O=C(/C=C/c1ccccc1Br)c1nc2ccccc2[nH]1`, the pIC50 with MCF7 is 4.29; in data set [1], 4.79; with HepG2, 4.54.
The matching figures for `O=C(/C=C/c1cccc(Cl)c1)c1nc2ccccc2o1`: < 4.00, < 4.00 and < 4.00.
For `O=C(/C=C/c1ccccn1)c1nc2ccccc2o1`, the negative logarithm of the IC50 (pIC50) (with MCF7; in data set [1]; with HepG2) was < 4.00 throughout.
On to `CCc1c2c(nc3ccc(OC(=O)N4CCC(N5CCCCC5)CC4)cc13)-c1cc3c(c(=O)n1C2)COC(=O)[C@]3(O)CC` [IRINOTECAN], for which the inhibition in vivo at 12.5 mg/kg in [19] stood at 70.2%. The Activity in the data set with Mus musculus [20] is given as 3.66 g.
On to `COc1cccc(/C=C/C(=O)c2nc3ccccc3o2)c1`, for which the pIC50 (in the data set on MCF7; in data set [1]; in the data set on HepG2) was < 4.00 in each case.
Turning to `COc1ccccc1/C=C/C(=O)c1nc2ccccc2[nH]1`, the pIC50 is 4.38 with MCF7, 5.32 in data set [1] and 5.10 in the data set on HepG2.
The matching figures for `OC(/C=C/c1cccc(Cl)c1)c1nc2ccccc2[nH]1` (stereo not drawn): < 4.00, < 4.00 and < 4.00.
Turning to `O=C(/C=C/c1cccnc1)c1nc2ccccc2[nH]1`, the pIC50 in the data set with MCF7 was 4.66; in data set [1] it was 4.81; in the data set with HepG2, 5.07.
With `COc1ccc(C2=N[C@H](c3ccc(Cl)cc3)[C@H](c3ccc(Cl)cc3)N2C(=O)N2CCNC(=O)C2)c(OC(C)C)c1`, the Activity in data set [21] worked out at 24.8%; in data set [22], 62.5%; in [23], 12.7%.
For the compound `O=C(/C=C/c1cccc(Cl)c1)c1nc2ccccc2s1`, the pIC50 (with MCF7; in data set [1]; in the data set with HepG2) was < 4.00 throughout.
